Tests used:
liver damaged by CCl4 = assay: Therapeutic effect on the liver damaged by carbon tetrachloride (Test Example 1); format: in vivo, Sprague Dawley rats; conditions: serum
Protocol: The therapeutic effect of the inventive oral microemulsion composition on the liver damaged by CCl4 was examined as follows.
Thirty-six 4 to 5-week old male Sprague Dawley rats were divided into six groups each consisting of 6 rats having an average body weight of 202±5g. The rats were acclimated to the cage environment set at 23±2° C. and 55±5% relative humidity. Then 50% (v/v) solution of carbon tetrachloride in corn oil was intraperitoneally administered to each rat of five experimental groups (Groups 1 to 5) at a dose of 0.75 ml/kg, twice a week (monday and friday) to induce hepatotoxicity.
The rats of Group 1 (negative control) were not treated with any therapeutic drug after the CCl4 injection. The rats of Group 2 (positive control) were orally administered with BDD suspended in 1% (w/v) CMC (carboxymethyl cellulose) once a day, six times a week after the CCl4 injection, in an amount corresponding to 25 mg/kg of BDD; the rats of Group 3, with a Carduus marianus extract suspended in 1% (w/v) CMC, in an amount corresponding to 175 mg/kg of the Carduus marianus extract (52.5 mg/kg as silybin); and the rats of Group 4, with a simple mixture of BDD and Carduus marianus extract suspended in 1% (w/v) CMC, in an amount corresponding to 25 mg/kg of BDD and 175 mg/kg of the Carduus marianus extract. The rats of Group 5 were orally administered with the formulation of Example 3 once a day, six times a week, in an amount corresponding to 3 mg/kg of BDD and 175 mg/kg of the Carduus marianusextract; and the rats of Group 6 (normal group) were not subjected to CCl4injection and no therapeutic drugs were administered thereto.
Four weeks after the administration, the rats were sacrificed and serum samples were taken according to a preset schedule. The serum ALT (alanine aminotransferase) and AST (aspartate aminotransferase) levels were measured in accordance with a conventional method, and the results are shown in Tables 1 and 2, respectively.

[1] = tested on: fatty liver induced by dl-ethionine; assay: Therapeutic effect on the dl-ethionine-induced fatty liver (Test Example 3); format: in vivo, Sprague Dawley rats
Protocol: In order to examine the therapeutic effect of the inventive oral microemulsion composition, a test to measure the activity of restoring fatty liver induced by dl-ethionine was conducted as follows.
Six groups of rats, each consisting of 6 rats were prepared by the procedure of Test Example 1. A 2% (w/v) dl-ethionine saline solution was subcutaneously injected to each rat of five experimental groups (Groups 1 to 5) at a dosage of 200 mg/kg, twice a week to induce fatty liver.
The rats of Group 1 (negative control) were not treated with any therapeutic drug after the ethionine injection. The rats of Group 2 (positive control) were orally administered with BDD suspended in 1% (w/v) CMC once a day, five times a week after the ethionine injection, in an amount corresponding to 25 mg/kg of BDD; the rats of Group 3, with the Carduus marianus extract suspended in 1% (w/v) CMC, in an amount corresponding to 175 mg/kg of the Carduus marianus extract (52.5 mg/kg as silybin); and the rats of Group 4, with a simple mixture of BDD and Carduus marianusextract suspended in 1% (w/v) CMC, in an amount corresponding to 25mg/kg of BDD and 175 mg/kg of the Carduus marianus extract. The rats of Group 5 were orally administered with the formulation of Example 3 once a day, five times a week, in an amount corresponding to 3 mg/kg of BDD and 175 mg/kg of the Carduus marianus extract; and the rats of Group 6 (normal group) received neither ethionine injection nor any therapeutic drug.
One week after the administration, each rat was sacrificed, and the liver was extracted therefrom. The extracted liver was washed with saline, soaked in a 4-fold volume of potassium phosphate buffer (pH 7.5), and homogenized with a teflone-glass homogenizer. The homogenized liver was subjected to centrifugation at 600×g for 10 minutes to obtain a supernatant, which was subjected to centrifugations at 10,000×g for 20minutes, and then at […], to obtain a supernatant.
Then, the total cholesterol and triglyceride levels of each liver sample were measured by employing the supernatant in accordance with a conventional method, and the results are shown in Tables 5 and 6, respectively.

[2] = CCl4-treated rats, oral once a day six times a week, four weeks, BDD 25 mg/kg, extract 175 mg/kg, Example 3: 3 mg/kg BDD + 175 mg/kg extract
[3] = versus CCl4 control Group 1, four weeks
[4] = dl-ethionine-treated rats, oral once a day five times a week, one week, BDD 25 mg/kg, extract 175 mg/kg, Example 3: 3 mg/kg BDD + 175 mg/kg extract
[5] = versus ethionine control Group 1, one week

COC(=O)c1cc(OC)c2c(c1-c1c(C(=O)OC)cc(OC)c3c1OCO3)OCO2 [BDD, biphenyldimethyldicarboxylate]
ALT (average concentration ± standard deviation) (liver damaged by CCl4; [2]): 137.7 ± 19.5 SF U/ml
AST (average concentration ± standard deviation) (liver damaged by CCl4; [2]): 163.3 ± 4.5 SF U/ml
Ratio of ALT level to a control (liver damaged by CCl4; [3]): 91.7%
Ratio of AST level to a control (liver damaged by CCl4; [3]): 95.2%
Total Cholesterol (average concentration ± standard deviation) [1, 4]: 22.0 ± 1.9 mg/g
Triglyceride (average concentration ± standard deviation) [1, 4]: 10.1 ± 0.5 mg/g
Ratio of cholesterol level to a control [1, 5]: 91.3%
Ratio of triglylceride level to a control [1, 5]: 72.7%
